# In patent publication US20200024278A1, “COMPOSITION COMPRISING ANTIBIOTIC COMPOUND AND AN HETEROCYCLIC COMPOUND AND THEIR USE IN PREVENTING OR TREATING BACTERIAL INFECTIONS” (MUTABILIS, priority 2016, published 2020):
# Like-named read-outs stand apart in the source and are kept apart here.
# Assays:
# Test in all cases: MIC, broth microdilution (CLSI), substance alone or ATB combined with compound at 4 or 8 μg/mL
# ECO 190317 = format: cell-based, E. coli; settings: Escherichia coli, ECO 190317
# Method in brief: (§1)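 Potentiation format: antibiotic dilution series run with test compound held at 4 or 8 μg/mL, alongside compound-alone MICs. Broth microdilution per CLSI in ca-MHB, 16-20 h at 35° C.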
# ECO UFR39 = format: cell-based, E. coli; settings: Escherichia coli, ECO UFR39
# Method in brief: as §1
# KPN 6299 = format: cell-based, K. pneumoniae; settings: Klebsiella pneumoniae
# Method in brief: as §1
# KPN UFR68 = format: cell-based, K. pneumoniae; settings: Klebsiella pneumoniae, substance alone
# Method in brief: as §1
# ECL P99 = format: cell-based, E. cloacae; settings: Enterobacter cloacae, ECL P99
# Method in brief: as §1
# PAE 105250 = format: cell-based, P. aeruginosa; settings: Pseudomonas aeruginosa, PAE 105250
# Method in brief: as §1
# PAE UFR48 = format: cell-based, P. aeruginosa; settings: Pseudomonas aeruginosa, PAE UFR48
# Method in brief: as §1
# PAE UFR90 = format: cell-based, P. aeruginosa; settings: Pseudomonas aeruginosa, PAE UFR90
# Method in brief: as §1
# SAU 29213 = format: cell-based, S. aureus; settings: Staphylococcus aureus
# Method in brief: as §1
# SPN 49619 = format: cell-based, S. pneumoniae; settings: Streptococcus pneumoniae, SPN 49619
# Method in brief: as §1
# ABA 19606 = format: cell-based, A. baumannii
# Procedure: (§2) Compounds of the present invention were assessed against genotyped bacterial strains alone or in combination with an antibacterial. In the assays, MICs of said compounds or combination of antibiotics with fixed concentrations of said compounds (4 or 8 μg/mL) were determined by the broth microdilution method according to the Clinical Laboratory Standards Institute (CLSI-M7-A7). Briefly, compounds alone according to the invention were prepared in DMSO and spotted (2 μL each) on sterile polystyrene plates (Corning, 3788). Combinations of compounds and antibiotics dilutions were prepared in DMSO and spotted (1 μL each) on sterile polystyrene plates (Corning, 3788). Log phase bacterial suspensions were adjusted to a final density of 5·10^5 CFU/mL in cation-adjusted Mueller-Hinton broth (ca-MHB; Becton-Dickinson and Company) and added to each well (98 μL). Assays including Fosfomycin were supplemented with 25 μg/ml of Glucose-6-phosphate. Microplates were incubated for 16-20 h at 35° C. in ambient air. The MIC of the compounds was defined as the lowest concentration of said compounds that prevented bacterial growth as read by visual inspection. The MIC of ATB at each compound concentration was defined as the lowest concentration of ATB that prevented bacterial growth as read by visual inspection.
# ABA UFR151 = format: cell-based, A. baumannii
# Procedure: as §2
# ABA UFR152 = format: cell-based, A. baumannii
# Procedure: as §2
# ABA UFR153 = format: cell-based, A. baumannii
# Procedure: as §2
# ABA UFR154 = format: cell-based, A. baumannii
# Procedure: as §2
# ABA UFR155 = format: cell-based, A. baumannii
# Procedure: as §2
# ABA UFR156 = format: cell-based, A. baumannii
# Procedure: as §2
# ABA UFR157 = format: cell-based, A. baumannii
# Procedure: as §2
# ABA UFR158 = format: cell-based, A. baumannii; settings: with Example 6 @8 μg/ml
# Procedure: as §2
# ABA UFR160 = format: cell-based, A. baumannii; settings: with Example 6 @8 μg/ml
# Procedure: as §2
# [1] = antibiotic alone, read-out: MIC ATB alone
# [2] = Acinetobacter baumannii, antibiotic alone, read-out: MIC ATB alone
smiles,measurement,setting,value
"C[C@@H](O)[C@H]1C(=O)N2C(C(=O)O)=C(S[C@@H]3CN[C@H](C(=O)N(C)C)C3)[C@H](C)[C@H]12 [MEM, Meropenem]",MIC,ECO 190317; [1],0.031 µg/mL
same,MIC,"ECO 190317; substance alone, read-out: MIC",0.031 µg/mL
same,MIC,ECO UFR39; [1],64 µg/mL
same,MIC,"ECO UFR39; substance alone, read-out: MIC",64 µg/mL
same,MIC,KPN 6299; [1],1 µg/mL
same,MIC,"KPN 6299; substance alone, read-out: MIC",1 µg/mL
same,MIC,KPN UFR68,32 µg/mL
same,MIC,ECL P99; [1],0.063 µg/mL
same,MIC,"ECL P99; substance alone, read-out: MIC",0.063 µg/mL
same,MIC,PAE 105250; [1],4 µg/mL
same,MIC,"PAE 105250; substance alone, read-out: MIC",4 µg/mL
same,MIC,PAE UFR48; [1],4 µg/mL
same,MIC,"PAE UFR48; substance alone, read-out: MIC",4 µg/mL
same,MIC,PAE UFR90; [1],2 µg/mL
same,MIC,"PAE UFR90; substance alone, read-out: MIC",2 µg/mL
same,MIC,SAU 29213; MSSA,0.125 µg/mL
same,MIC,"SAU 29213; antibiotic alone, SAU 29213, read-out: MIC ATB alone",0.125 µg/mL
same,MIC,SPN 49619; [1],0.063 µg/mL
same,MIC,"SPN 49619; substance alone, read-out: MIC",0.063 µg/mL
same,MIC,ABA 19606; [2],1 µg/mL
same,MIC ATB combined with Example 1 @8 μg/ml,ABA 19606; with Example 1 @8 μg/ml,1 µg/mL
same,MIC ATB combined with Example 3 @8 μg/ml,ABA 19606; with Example 3 @8 μg/ml,<=0.25 μg/mL
same,MIC ATB combined with Example 6 @8 μg/ml,ABA 19606; with Example 6 @8 μg/ml,<=0.25 μg/mL
same,MIC ATB combined with Example 9 @4 μg/ml,ABA 19606; with Example 9 @4 μg/ml,2 µg/mL
same,MIC ATB combined with Example 10 @8 μg/ml,ABA 19606; with Example 10 @8 μg/ml,<=0.25 μg/mL
same,MIC ATB combined with Example 11 @8 μg/ml,ABA 19606; with Example 11 @8 μg/ml,0.5 µg/mL
same,MIC ATB combined with Example 12 @8 μg/ml,ABA 19606; with Example 12 @8 μg/ml,<=0.25 μg/mL
same,MIC ATB combined with Example 15 @4 μg/ml,ABA 19606; with Example 15 @4 μg/ml,0.5 µg/mL
same,MIC,ABA UFR151; [2],0.5 µg/mL
same,MIC ATB combined with Example 1 @8 μg/ml,ABA UFR151; with Example 1 @8 μg/ml,<=0.25 μg/mL
same,MIC ATB combined with Example 3 @8 μg/ml,ABA UFR151; with Example 3 @8 μg/ml,<=0.25 μg/mL
same,MIC ATB combined with Example 6 @8 μg/ml,ABA UFR151; with Example 6 @8 μg/ml,<=0.25 μg/mL
same,MIC ATB combined with Example 9 @4 μg/ml,ABA UFR151; with Example 9 @4 μg/ml,<=0.25 μg/mL
same,MIC ATB combined with Example 10 @8 μg/ml,ABA UFR151; with Example 10 @8 μg/ml,<=0.25 μg/mL
same,MIC ATB combined with Example 11 @8 μg/ml,ABA UFR151; with Example 11 @8 μg/ml,0.5 µg/mL
same,MIC ATB combined with Example 12 @8 μg/ml,ABA UFR151; with Example 12 @8 μg/ml,<=0.25 μg/mL
same,MIC ATB combined with Example 15 @4 μg/ml,ABA UFR151; with Example 15 @4 μg/ml,0.5 µg/mL
same,MIC,ABA UFR152; [2],2 µg/mL
same,MIC ATB combined with Example 1 @8 μg/ml,ABA UFR152; with Example 1 @8 μg/ml,4 µg/mL
same,MIC ATB combined with Example 3 @8 μg/ml,ABA UFR152; with Example 3 @8 μg/ml,1 µg/mL
same,MIC ATB combined with Example 6 @8 μg/ml,ABA UFR152; with Example 6 @8 μg/ml,2 µg/mL
same,MIC ATB combined with Example 9 @4 μg/ml,ABA UFR152; with Example 9 @4 μg/ml,1 µg/mL
same,MIC ATB combined with Example 10 @8 μg/ml,ABA UFR152; with Example 10 @8 μg/ml,1 µg/mL
same,MIC ATB combined with Example 11 @8 μg/ml,ABA UFR152; with Example 11 @8 μg/ml,1 µg/mL
same,MIC ATB combined with Example 12 @8 μg/ml,ABA UFR152; with Example 12 @8 μg/ml,1 µg/mL
same,MIC ATB combined with Example 15 @4 μg/ml,ABA UFR152; with Example 15 @4 μg/ml,1 µg/mL
same,MIC,ABA UFR153; [2],1 µg/mL
same,MIC ATB combined with Example 1 @8 μg/ml,ABA UFR153; with Example 1 @8 μg/ml,1 µg/mL
same,MIC ATB combined with Example 3 @8 μg/ml,ABA UFR153; with Example 3 @8 μg/ml,<=0.25 μg/mL
same,MIC ATB combined with Example 6 @8 μg/ml,ABA UFR153; with Example 6 @8 μg/ml,<0.25 µg/mL
same,MIC ATB combined with Example 9 @4 μg/ml,ABA UFR153; with Example 9 @4 μg/ml,<=0.25 μg/mL
same,MIC ATB combined with Example 10 @8 μg/ml,ABA UFR153; with Example 10 @8 μg/ml,<=0.25 μg/mL
same,MIC ATB combined with Example 11 @8 μg/ml,ABA UFR153; with Example 11 @8 μg/ml,1 µg/mL
same,MIC ATB combined with Example 12 @8 μg/ml,ABA UFR153; with Example 12 @8 μg/ml,<=0.25 μg/mL
same,MIC ATB combined with Example 15 @4 μg/ml,ABA UFR153; with Example 15 @4 μg/ml,<=0.25 μg/mL
same,MIC,ABA UFR154; [2],1 µg/mL
same,MIC ATB combined with Example 1 @8 μg/ml,ABA UFR154; with Example 1 @8 μg/ml,0.5 µg/mL
same,MIC ATB combined with Example 3 @8 μg/ml,ABA UFR154; with Example 3 @8 μg/ml,<=0.25 μg/mL
same,MIC ATB combined with Example 6 @8 μg/ml,ABA UFR154; with Example 6 @8 μg/ml,0.5 µg/mL
same,MIC ATB combined with Example 9 @4 μg/ml,ABA UFR154; with Example 9 @4 μg/ml,0.5 µg/mL
same,MIC ATB combined with Example 10 @8 μg/ml,ABA UFR154; with Example 10 @8 μg/ml,<=0.25 μg/mL
same,MIC ATB combined with Example 11 @8 μg/ml,ABA UFR154; with Example 11 @8 μg/ml,1 µg/mL
same,MIC ATB combined with Example 12 @8 μg/ml,ABA UFR154; with Example 12 @8 μg/ml,<=0.25 μg/mL
same,MIC ATB combined with Example 15 @4 μg/ml,ABA UFR154; with Example 15 @4 μg/ml,0.5 µg/mL
same,MIC,ABA UFR155; [2],32 µg/mL
same,MIC ATB combined with Example 1 @8 μg/ml,ABA UFR155; with Example 1 @8 μg/ml,16 µg/mL
same,MIC ATB combined with Example 3 @8 μg/ml,ABA UFR155; with Example 3 @8 μg/ml,8 µg/mL
same,MIC ATB combined with Example 6 @8 μg/ml,ABA UFR155; with Example 6 @8 μg/ml,16 µg/mL
same,MIC ATB combined with Example 9 @4 μg/ml,ABA UFR155; with Example 9 @4 μg/ml,16 µg/mL
same,MIC ATB combined with Example 10 @8 μg/ml,ABA UFR155; with Example 10 @8 μg/ml,8 µg/mL
same,MIC ATB combined with Example 11 @8 μg/ml,ABA UFR155; with Example 11 @8 μg/ml,16 µg/mL
same,MIC ATB combined with Example 12 @8 μg/ml,ABA UFR155; with Example 12 @8 μg/ml,16 µg/mL
same,MIC ATB combined with Example 15 @4 μg/ml,ABA UFR155; with Example 15 @4 μg/ml,64 µg/mL
same,MIC,ABA UFR156; [2],64 µg/mL
same,MIC ATB combined with Example 1 @8 μg/ml,ABA UFR156; with Example 1 @8 μg/ml,64 µg/mL
same,MIC ATB combined with Example 3 @8 μg/ml,ABA UFR156; with Example 3 @8 μg/ml,8 µg/mL
same,MIC ATB combined with Example 6 @8 μg/ml,ABA UFR156; with Example 6 @8 μg/ml,16 µg/mL
same,MIC ATB combined with Example 9 @4 μg/ml,ABA UFR156; with Example 9 @4 μg/ml,64 µg/mL
same,MIC ATB combined with Example 10 @8 μg/ml,ABA UFR156; with Example 10 @8 μg/ml,8 µg/mL
same,MIC ATB combined with Example 11 @8 μg/ml,ABA UFR156; with Example 11 @8 μg/ml,64 µg/mL
same,MIC ATB combined with Example 12 @8 μg/ml,ABA UFR156; with Example 12 @8 μg/ml,32 µg/mL
same,MIC ATB combined with Example 15 @4 μg/ml,ABA UFR156; with Example 15 @4 μg/ml,64 µg/mL
same,MIC,ABA UFR157; [2],32 µg/mL
same,MIC ATB combined with Example 1 @8 μg/ml,ABA UFR157; with Example 1 @8 μg/ml,1 µg/mL
same,MIC ATB combined with Example 3 @8 μg/ml,ABA UFR157; with Example 3 @8 μg/ml,<=0.25 μg/mL
same,MIC ATB combined with Example 6 @8 μg/ml,ABA UFR157; with Example 6 @8 μg/ml,<=0.25 μg/mL
same,MIC ATB combined with Example 9 @4 μg/ml,ABA UFR157; with Example 9 @4 μg/ml,1 µg/mL
same,MIC ATB combined with Example 10 @8 μg/ml,ABA UFR157; with Example 10 @8 μg/ml,0.5 µg/mL
same,MIC ATB combined with Example 11 @8 μg/ml,ABA UFR157; with Example 11 @8 μg/ml,0.5 µg/mL
same,MIC ATB combined with Example 12 @8 μg/ml,ABA UFR157; with Example 12 @8 μg/ml,<=0.25 μg/mL
same,MIC ATB combined with Example 15 @4 μg/ml,ABA UFR157; with Example 15 @4 μg/ml,0.5 µg/mL
same,MIC ATB combined with Example 6 @8 μg/ml,ABA UFR158,<0.25 µg/mL
same,MIC ATB combined with Example 6 @8 μg/ml,ABA UFR160,<0.25 µg/mL
